Measurements taken from publication PMC7756656, “Discovery of Homobivalent Bitopic Ligands of the Cannabinoid CB2 Receptor” (Chemistry (Weinheim an Der Bergstrasse, Germany), 2020).

Tests used:
[1] = target: T1, CB1R (hCB1R) (Homo sapiens, UniProt P21554); test: [3H]CP-55, […] competition binding, HEK-293T membranes; conditions: read-out: CB1R Ki [μM]^[b]
T1 construct: gene CNR1; expressed in HEK-293T cells; membrane fractions

[2] = target: T2, CB2R (hCB2R) (Homo sapiens, UniProt P34972, A282M); test: inhibition of forskolin-induced cAMP, HEK-293T cells; format: cell-based; conditions: read-out: Ala282^7.36Met / pEC50 (converted)
T2 construct: gene CNR2; expressed in HEK-293T cells
T2 sequence (P34972 whole entry A282M): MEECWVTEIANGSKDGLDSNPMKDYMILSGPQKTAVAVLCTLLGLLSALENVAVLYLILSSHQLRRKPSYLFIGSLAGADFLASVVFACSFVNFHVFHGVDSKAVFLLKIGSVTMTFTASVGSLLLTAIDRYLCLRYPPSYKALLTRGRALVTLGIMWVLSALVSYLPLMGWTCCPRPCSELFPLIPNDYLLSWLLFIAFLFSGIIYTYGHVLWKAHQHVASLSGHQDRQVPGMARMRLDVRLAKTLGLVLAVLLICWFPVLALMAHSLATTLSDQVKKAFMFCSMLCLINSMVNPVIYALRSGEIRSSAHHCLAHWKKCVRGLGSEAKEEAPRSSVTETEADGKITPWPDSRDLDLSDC

[3] = target: T3, CB2R (hCB2R) (Homo sapiens, UniProt P34972, V36M); test: as above; format: cell-based; conditions: read-out: Val36^1.35Met / pEC50 (converted)
T3 construct: gene CNR2; expressed in HEK-293T cells
T3 sequence (P34972 whole entry V36M): as the sequence (P34972 whole entry A282M) above, with V36M, M282A counted along it

[4] = target: T4, CB2R (hCB2R) (Homo sapiens, UniProt P34972); test: [3H]CP-55, […] competition binding, HEK-293T membranes; conditions: read-out: CB2R Ki [μM]^[b]
T4 construct: gene CNR2; expressed in HEK-293T cells
T4 sequence (P34972 whole entry): as the sequence (P34972 whole entry A282M) above, with M282A counted along it

[5] = target: T4, CB2R (hCB2R); test: inhibition of forskolin-induced cAMP, HEK-293T cells; format: cell-based; conditions: read-out: Wild type / pEC50 (converted)
[6] = [3H]CP-55, […] competition binding, HEK-293T membranes; set-up: species or system Homo sapiens; conditions: read-out: CB1R Ki [μM]^[b]

T1 sequence (P21554 whole entry): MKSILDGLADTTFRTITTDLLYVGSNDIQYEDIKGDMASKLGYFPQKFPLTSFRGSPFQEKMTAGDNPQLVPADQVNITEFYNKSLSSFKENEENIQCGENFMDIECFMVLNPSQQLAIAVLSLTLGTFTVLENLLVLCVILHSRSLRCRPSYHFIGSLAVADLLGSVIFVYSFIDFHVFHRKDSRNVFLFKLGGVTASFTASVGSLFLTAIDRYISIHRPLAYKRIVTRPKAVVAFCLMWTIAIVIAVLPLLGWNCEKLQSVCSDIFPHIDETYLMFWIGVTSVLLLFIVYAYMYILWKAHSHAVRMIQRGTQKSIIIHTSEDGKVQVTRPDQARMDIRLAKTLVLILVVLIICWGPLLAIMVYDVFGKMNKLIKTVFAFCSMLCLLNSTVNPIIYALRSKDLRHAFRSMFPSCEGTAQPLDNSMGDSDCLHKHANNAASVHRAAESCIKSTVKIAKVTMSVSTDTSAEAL

CCCCCCC(C)(C)c1cc(OCCCCCCCCCCOc2cc(C(C)(C)CCCCCC)cc3c2-c2c(cnn2CC)C(C)(C)O3)c2c(c1)OC(C)(C)c1cnn(CC)c1-2 [compound 22, bivalent chromenopyrazole 22 (R1 = N1-Et, n = 8)]
Ki [1]: > 40 µM
EC50 [2]: 0.0631 µM
EC50 [3]: 0.02 µM
Ki [4]: 0.9 ± 0.2 µM
EC50 [5]: 0.0794 µM

CCCCCCC(C)(C)c1cc(OCCCCCCCCCCCCCCOc2cc(C(C)(C)CCCCCC)cc3c2-c2nn(CC)cc2C(C)(C)O3)c2c(c1)OC(C)(C)c1cn(CC)nc1-2 [compound 27]
Ki [1]: > 40 µM
EC50 [2]: 0.0501 µM
EC50 [3]: 0.0794 µM
Ki [4]: 0.3 ± 0.1 µM
EC50 [5]: 0.0251 µM

CCCCCCC(C)(C)c1cc(OCCCCCCCCCCCCCCCCOc2cc(C(C)(C)CCCCCC)cc3c2-c2c(cnn2CC)C(C)(C)O3)c2c(c1)OC(C)(C)c1cnn(CC)c1-2 [compound 28, bivalent chromenopyrazole 28 (R1 = N1-Et, n = 14)]
Ki [1]: > 40 µM
Ki [6]: > 40 µM
